In patent US20250074913A1, “PYRAZOLE DERIVATIVES AS STING AGONISTS” (Hoffmann-La Roche Inc., priority 2022, published 2025) one finds EC50 data, which are given here for 25 molecules.

One may read the EC50 as the concentration at which the effect is half-maximal.

This assay relates to interferon regulatory factor (IRF) pathway in THP1-Dual™ cells. In words: THP1-Dual reporter gene assay (Agonist_THP1_EC50). In kind it is cell-based. The conditions noted are these: Homo sapiens, 20-24 hrs compound treatment, Lucia luciferase (IRF) readout. From the text:
This is the cellular reporter assay to evaluate compounds' agonism to interferon regulatory factor (IRF) pathway in THP1-Dual™ cells (InvivoGen, cat number thpd-nfis). THP1-Dual™ cells were derived from the human THP-1 monocyte cell line by stable integration lucia luciferase gene, a new secreted luciferase reporter gene, under the control of an ISG54 (interferon-stimulated gene) minimal promoter in conjunction with five interferon (IFN)-stimulated response elements. As a result, THP1-Dual™ cells allow the study of the IRF pathway, by assessing the activity of Lucia luciferase. Lucia luciferase protein is readily measurable in the cell culture supernatant when using QUANTI-Luc™ (InvivoGen, cat: rep-qlcg-500).
After 20-24 hrs compound treatment in THP1-Dual cells, the compounds' agonism to IRF pathway and cell toxicity were tested by measuring luminescence and OD 450 on an Envision plate reader.
On the day of experiment, 30 μL of test medium (RPMI 1640, 2 mM L-glutamine, 25 mM HEPES, […] heat-inactivated fetal bovine serum) was dispensed in a white 384-well plate (Grenier, cat: 781098) containing the serially diluted compounds (final 1% DMSO) transferred by the Echo550 machine. Then 30 μL of cell suspension (˜33,000 cells, 1.1×10^6 cells/mL) per well was added immediately by thermo multidrop combi dispenser for incubation 20-24 h at 37° C., […]. At the end of the incubation, 10 μL of cellular supernatant was transferred to proxiplate 384-plus plate for IRF detection, and then 10 μL of QUANTI-Luc™ Gold solution was added to the plate that proceeded with the measurement immediately. To detect cell viability, 30 μL of the CCK-8 working solution (Dojindo Molecular Technologies, cat: CK04-20) was added to the cell plate, which was Incubated for 2 hrs in the incubator to measure the absorbance at 450 nm using Envision.
(In a reporter assay the amount or activity of a reporter protein is the signal.)
For the molecule `Cc1cc2c(C(N)=O)nn(-c3nc(-c4c(O)c(C)nn4CCc4ccncc4)n[nH]3)c2cn1` [Example 46, 1-[3-[4-hydroxy-5-methyl-2-[2-(4-pyridyl)ethyl]pyrazol-3-yl]-1H-1,2,4-triazol-5-yl]-5-methyl-pyrazolo[3,4-c]pyridine-3-carboxamide], the EC50 is 97 nM. In the case of `Cc1cc2c(C(N)=O)nn(-c3nc(-c4c(O)c(C)nn4CCc4cccnc4)n[nH]3)c2cn1` [Example 47, 1-[3-[4-hydroxy-5-methyl-2-[2-(3-pyridyl)ethyl]pyrazol-3-yl]-1H-1,2,4-triazol-5-yl]-5-methyl-pyrazolo[3,4-c]pyridine-3-carboxamide] it was 33 nM; in that of `Cc1cc2c(C(N)=O)nn(-c3nc(-c4c(O)c(C)nn4CCc4ccccc4)nn3C)c2cn1` [Example 48, 1-[5-[4-hydroxy-5-methyl-2-(2-phenylethyl)pyrazol-3-yl]-2-methyl-1,2,4-triazol-3-yl]-5-methyl-pyrazolo[3,4-c]pyridine-3-carboxamide], 64 nM.

Molecule `CCCCn1nc(C)c(O)c1-c1nc(-n2nc(C(N)=O)c3cc(C)ncc32)n(C)n1` [Example 49, 1-[5-(2-butyl-4-hydroxy-5-methyl-pyrazol-3-yl)-2-methyl-1,2,4-triazol-3-yl]-5-methyl-pyrazolo[3,4-c]pyridine-3-carboxamide] returned an EC50 of 58 nM. `COc1ccc(CCn2nc(C)c(O)c2-c2n[nH]c(-n3nc(C(N)=O)c4cc(C)ncc43)n2)cc1` [Example 50, 1-[3-[4-hydroxy-2-[2-(4-methoxyphenyl)ethyl]-5-methyl-pyrazol-3-yl]-1H-1,2,4-triazol-5-yl]-5-methyl-pyrazolo[3,4-c]pyridine-3-carboxamide] showed an EC50 of 25 nM.

As for `CC#CCCn1nc(C)c(O)c1-c1n[nH]c(-n2nc(C(N)=O)c3cc(C)ncc32)n1` [Example 51, 1-[3-(4-hydroxy-5-methyl-2-pent-3-ynyl-pyrazol-3-yl)-1H-1,2,4-triazol-5-yl]-5-methyl-pyrazolo[3,4-c]pyridine-3-carboxamide], the EC50 came to 34 nM. In the case of `COc1cccc(CCn2nc(C)c(O)c2-c2n[nH]c(-n3nc(C(N)=O)c4cc(C)ncc43)n2)c1` [Example 54, 1-[3-[4-hydroxy-2-[2-(3-methoxyphenyl)ethyl]-5-methyl-pyrazol-3-yl]-1H-1,2,4-triazol-5-yl]-5-methyl-pyrazolo[3,4-c]pyridine-3-carboxamide], the EC50 came out at 31 nM. In the case of `Cc1cc2c(C(N)=O)nn(-c3nc(-c4c(O)c(C)nn4CCc4ccccc4F)n[nH]3)c2cn1` [Example 56, 1-[3-[2-[2-(2-fluorophenyl)ethyl]-4-hydroxy-5-methyl-pyrazol-3-yl]-1H-1,2,4-triazol-5-yl]-5-methyl-pyrazolo[3,4-c]pyridine-3-carboxamide] it was 13 nM; in that of `Cc1cn2c(C(N)=O)c(F)c(-c3nc(-c4c(O)c(C)nn4CCc4ccccc4)n[nH]3)c2cn1` [Example 57, 7-fluoro-8-[3-[4-hydroxy-5-methyl-2-(2-phenylethyl)pyrazol-3-yl]-1H-1,2,4-triazol-5-yl]-3-methyl-pyrrolo[1,2-a]pyrazine-6-carboxamide], 62 nM; in that of `Cc1cc2c(C(N)=O)nn(-c3nc(-c4c(O)c(C)nn4CCc4cccc(C#N)c4)n[nH]3)c2cn1` [Example 60, 1-[3-[2-[2-(3-cyanophenyl)ethyl]-4-hydroxy-5-methyl-pyrazol-3-yl]-1H-1,2,4-triazol-5-yl]-5-methyl-pyrazolo[3,4-c]pyridine-3-carboxamide], 23 nM. Take `Cc1cc2c(C(N)=O)nn(-c3nc(-c4c(O)c(C)nn4CCc4ccc(C#N)cc4)n[nH]3)c2cn1` [Example 61, 1-[3-[2-[2-(4-cyanophenyl)ethyl]-4-hydroxy-5-methyl-pyrazol-3-yl]-1H-1,2,4-triazol-5-yl]-5-methyl-pyrazolo[3,4-c]pyridine-3-carboxamide]: the EC50 is 47 nM. To `COC(=O)c1ccc(CCn2nc(C)c(O)c2-c2n[nH]c(-n3nc(C(N)=O)c4cc(C)ncc43)n2)cc1` [Example 62, Methyl 4-[2-[5-[5-(3-carbamoyl-5-methyl-pyrazolo[3,4-c]pyridin-1-yl)-1H-1,2,4-triazol-3-yl]-4-hydroxy-3-methyl-pyrazol-1-yl]ethyl]benzoate] belongs 44 nM; to `Cc1cc2c(C(N)=O)nn(-c3nc(-c4c(O)c(C)nn4CC=C(F)F)n[nH]3)c2cn1` [Example 63, 1-(3-(1-(3,3-difluoroallyl)-4-hydroxy-3-methyl-1H-pyrazol-5-yl)-1H-1,2,4-triazol-5-yl)-5-methyl-1H-pyrazolo[3,4-c]pyridine-3-carboxamide], 26 nM. To `COCc1cccc(CCn2nc(C)c(O)c2-c2n[nH]c(-n3nc(C(N)=O)c4cc(C)ncc43)n2)c1` [Example 65, 1-[3-[4-hydroxy-2-[2-[3-(methoxymethyl)phenyl]ethyl]-5-methyl-pyrazol-3-yl]-11H-1,2,4-triazol-5-yl]-5-methyl-pyrazolo[3,4-c]pyridine-3-carboxamide] belongs 17 nM; to `Cc1cc2c(C(N)=O)nn(-c3nc(-c4c(O)c(C)nn4CCC(F)F)n[nH]3)c2cn1` [Example 66, 1-(3-(1-(3,3-difluoropropyl)-4-hydroxy-3-methyl-1H-pyrazol-5-yl)-1H-1,2,4-triazol-5-yl)-5-methyl-1H-pyrazolo[3,4-c]pyridine-3-carboxamide], 27 nM. In the case of `Cc1cc2c(C(N)=O)nn(-c3nc(-c4c(O)c(C)nn4CCc4ccc(CO)cc4)n[nH]3)c2cn1` [Example 68, 1-[3-[4-hydroxy-2-[2-[4-(hydroxymethyl)phenyl]ethyl]-5-methyl-pyrazol-3-yl]-1H-1,2,4-triazol-5-yl]-5-methyl-pyrazolo[3,4-c]pyridine-3-carboxamide] it was 27 nM. The molecule `COc1ccc(CCn2nc(C)c(O)c2-c2n[nH]c(-c3c(F)c(C(N)=O)n4cc(C)ncc34)n2)cc1` [Example 69, 7-fluoro-8-[3-[4-hydroxy-2-[2-(4-methoxyphenyl)ethyl]-5-methyl-pyrazol-3-yl]-1H-1,2,4-triazol-5-yl]-3-methyl-pyrrolo[1,2-a]pyrazine-6-carboxamide] registered an EC50 of 93 nM. In the case of `Cc1cn2c(C(N)=O)nc(-c3nc(-c4c(O)c(C)nn4CCc4ccc(CO)cc4)n[nH]3)c2cn1` [Example 71, 1-[3-[4-hydroxy-2-[2-[4-(hydroxymethyl)phenyl]ethyl]-5-methyl-pyrazol-3-yl]-1H-1,2,4-triazol-5-yl]-6-methyl-imidazo[1,5-a]pyrazine-3-carboxamide] it was 15 nM; in that of `Cc1cn2c(C(N)=O)nc(-c3nc(-c4c(O)c(C)nn4CCc4cccnc4)n[nH]3)c2cn1` [Example 72, 1-[3-[4-hydroxy-5-methyl-2-[2-(3-pyridyl)ethyl]pyrazol-3-yl]-1H-1,2,4-triazol-5-yl]-6-methyl-imidazo[1,5-a]pyrazine-3-carboxamide], 15 nM; in that of `Cc1cn2c(C(N)=O)c(F)c(-c3nc(-c4c(O)c(C)nn4CCc4cccnc4)n[nH]3)c2cn1` [Example 73, 7-fluoro-8-[3-[4-hydroxy-5-methyl-2-[2-(3-pyridyl)ethyl]pyrazol-3-yl]-1H-1,2,4-triazol-5-yl]-3-methyl-pyrrolo[1,2-a]pyrazine-6-carboxamide], 39 nM. In the case of `Cc1cc2c(C(N)=O)nn(-c3coc(-c4c(O)c(C)nn4CCc4cccnc4)n3)c2cn1` [Example 74, 1-(2-(4-hydroxy-3-methyl-1-(2-(pyridin-3-yl)ethyl)-1H-pyrazol-5-yl)oxazol-4-yl)-5-methyl-1H-pyrazolo[3,4-c]pyridine-3-carboxamide] it was 170 nM; in that of `COc1cccc(CCn2nc(C)c(O)c2-c2nc(-n3nc(C(N)=O)c4cc(C)ncc43)co2)c1` [Example 75, 1-(2-(4-hydroxy-1-(3-methoxyphenethyl)-3-methyl-1H-pyrazol-5-yl)oxazol-4-yl)-5-methyl-1H-pyrazolo[3,4-c]pyridine-3-carboxamide], 49 nM.

`COc1ccc(CCn2nc(C)c(O)c2-c2nc(-n3nc(C(N)=O)c4cc(C)ncc43)co2)cc1` [Example 78, 1-(2-(4-hydroxy-1-(4-methoxyphenethyl)-3-methyl-1H-pyrazol-5-yl)oxazol-4-yl)-5-methyl-1H-pyrazolo[3,4-c]pyridine-3-carboxamide] showed an EC50 of 90 nM. To `COCC#CCCn1nc(C)c(O)c1-c1n[nH]c(-n2nc(C(N)=O)c3cc(C)ncc32)n1` [Example 81, 1-[3-[4-hydroxy-2-(5-methoxypent-3-ynyl)-5-methyl-pyrazol-3-yl]-1H-1,2,4-triazol-5-yl]-5-methyl-pyrazolo[3,4-c]pyridine-3-carboxamide] belongs 65 nM; to `CCCn1nc(C)c(O)c1-c1nc(-c2nc(C(N)=O)n3cc(C)ncc23)co1` [Example 85, 1-[2-(4-hydroxy-5-methyl-2-propyl-pyrazol-3-yl)oxazol-4-yl]-6-methyl-imidazo[1,5-a]pyrazine-3-carboxamide], 49 nM.
